# Target: human APJ receptor (Homo sapiens (Human), UniProt P35414)
# Assay: biochemical
# Type: biochemical
# Conditions: not given
# Protocol: The human APJ receptor was cloned by polymerase chain reaction and the gene encoding the receptor was subcloned in pFLAG-CMV™-3 expression vector (Sigma, Saint Louis, Mo. USA) in-house at Amgen. A GTPγS binding assay was performed on membranes prepared from CHO cells stably expressing human APJ receptor. The optimum experimental conditions for the concentrations of GDP, MgCl2, and NaCl in the assay buffer were initially determined. The assay was performed in 9 μL assay buffer [20 mM HEPES, pH 7.5, 5 mM MgCl2, 100 mM NaCl and 0.1% (w/v) BSA], 1 μL of diluted test compound (starting with 0.75 mM, 2-fold serial dilution with DMSO, total 22 points), 10 μL of 18 µM GDP (final concentration of 3 μM GDP), 20 μL of […] membrane protein expressing human APJ receptor captured with WGA PS beads (final concentration of 5 μg per well), and 20 μL of 0.3 nM [^35S]GTPγS (final concentration is 0.1 nM [^35S]GTPγS)(Perkin Elmer Life and Analytical Sciences, Waltham USA).
# Sequence of human APJ receptor (P35414 whole entry): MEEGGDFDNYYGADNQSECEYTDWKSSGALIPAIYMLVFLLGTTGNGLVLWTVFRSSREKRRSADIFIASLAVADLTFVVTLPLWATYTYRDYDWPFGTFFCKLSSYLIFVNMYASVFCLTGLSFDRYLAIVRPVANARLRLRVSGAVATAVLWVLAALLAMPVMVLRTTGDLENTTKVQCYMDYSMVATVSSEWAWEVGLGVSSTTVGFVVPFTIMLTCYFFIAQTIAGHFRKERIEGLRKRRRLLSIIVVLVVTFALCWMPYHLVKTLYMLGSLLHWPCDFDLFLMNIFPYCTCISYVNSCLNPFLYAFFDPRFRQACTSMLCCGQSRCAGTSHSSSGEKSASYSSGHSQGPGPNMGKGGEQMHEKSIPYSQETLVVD
row,SMILES,EC50
1,"COc1cccc(OC)c1-n1c(COC(F)F)nnc1NS(=O)(=O)[C@@H](C)[C@H](OC)c1ncc(Cl)cn1 [Example 65.0, (1R,2S)-1-(5-chloro-2-pyrimidinyl)-N-(5-((difluoromethoxy)methyl)-4-(2,6-dimethoxyphenyl)-4H-1,2,4-triazol-3-yl)-1-methoxy-2-propanesulfonamide]",5.7 nM

# Same assay, conditions: [35S]GTPγS binding, membranes from CHO cells stably expressing human APJ receptor; read-out: Activity hAPJ SPA EC50 IP
row,SMILES,EC50
1,"COc1cccc(OC)c1-n1c(Cc2cc[nH]n2)nnc1NS(=O)(=O)[C@@H](C)[C@H](C)c1ncc(Cl)cn1 [Example 39.0, (2S,3R)-3-(5-chloro-2-pyrimidinyl)-N-(4-(2,6-dimethoxyphenyl)-5-(1H-pyrazol-3-ylmethyl)-4H-1,2,4-triazol-3-yl)-2-butanesulfonamide]",5.8 nM
2,"COc1cccc(OC)c1-n1c(CC(C)(C)OC)nnc1NS(=O)(=O)[C@@H](C)[C@H](C)c1ncc(Cl)cn1 [Example 40.0, (2S,3R)-3-(5-chloro-2-pyrimidinyl)-N-(4-(2,6-dimethoxyphenyl)-5-(2-methoxy-2-methylpropyl)-4H-1,2,4-triazol-3-yl)-2-butanesulfonamide]",110 nM
3,"COc1cccc(OC)c1-n1c(CN2CCCC2=O)nnc1NS(=O)(=O)[C@@H](C)[C@H](C)c1ncc(Cl)cn1 [Example 41.0, (2S,3R)-3-(5-chloro-2-pyrimidinyl)-N-(4-(2,6-dimethoxyphenyl)-5-((2-oxo-1-pyrrolidinyl)methyl)-4H-1,2,4-triazol-3-yl)-2-butanesulfonamide]",320 nM
4,"COc1cccc(OC)c1-n1c(Cn2ccccc2=O)nnc1NS(=O)(=O)[C@@H](C)[C@H](C)c1ncc(Cl)cn1 [Example 42.0, (2S,3R)-3-(5-chloro-2-pyrimidinyl)-N-(4-(2,6-dimethoxyphenyl)-5-((2-oxo-1(2H)-pyridinyl)methyl)-4H-1,2,4-triazol-3-yl)-2-butanesulfonamide]",330 nM
5,"COc1cccc(OC)c1-n1c(Cc2cccs2)nnc1NS(=O)(=O)[C@@H](C)[C@H](C)c1ncc(Cl)cn1 [Example 43.0, (2S,3R)-3-(5-chloro-2-pyrimidinyl)-N-(4-(2,6-dimethoxyphenyl)-5-(2-thiophenylmethyl)-4H-1,2,4-triazol-3-yl)-2-butanesulfonamide]",2.7 nM
6,"COc1cccc(OC)c1-n1c(Cc2nc(C)cs2)nnc1NS(=O)(=O)[C@@H](C)[C@H](C)c1ncc(Cl)cn1 [Example 44.0, (2S,3R)-3-(5-chloro-2-pyrimidinyl)-N-(4-(2,6-dimethoxyphenyl)-5-((4-methyl-1,3-thiazol-2-yl)methyl)-4H-1,2,4-triazol-3-yl)-2-butanesulfonamide]",36 nM
7,"COc1cccc(OC)c1-n1c(Cc2ccncc2)nnc1NS(=O)(=O)[C@@H](C)[C@H](C)c1ncc(Cl)cn1 [Example 45.0, (2S,3R)-3-(5-chloro-2-pyrimidinyl)-N-(4-(2,6-dimethoxyphenyl)-5-(4-pyridinylmethyl)-4H-1,2,4-triazol-3-yl)-2-butanesulfonamide]",1.7 nM
8,"COc1cccc(OC)c1-n1c(COc2ccccc2)nnc1NS(=O)(=O)[C@@H](C)[C@H](OC)c1ncc(C)cn1 [Example 48.0, (1R,2S)—N-(4-(2,6-Dimethoxyphenyl)-5-(phenoxymethyl)-4H-1,2,4-triazol-3-yl)-1-methoxy-1-(5-methyl-2-pyrimidinyl)-2-propanesulfonamide]",440 nM
9,COc1ccc(Cc2nnc(NS(=O)(=O)[C@@H](C)[C@H](OC)c3ncc(C)cn3)n2-c2c(OC)cccc2OC)cc1 [Example 49.0],170 nM
10,COc1cccc(OC)c1-n1c(Cc2ccc(F)cc2)nnc1NS(=O)(=O)[C@@H](C)[C@H](OC)c1ncc(C)cn1 [Example 50.0],940 nM
11,COc1cccc(OC)c1-n1c(CCN(C)C)nnc1NS(=O)(=O)[C@@H](C)[C@H](OC)c1ncc(C)cn1 [Example 51.0],520 nM
12,COc1cccc(OC)c1-n1c(CN2CCCCCC2=O)nnc1NS(=O)(=O)[C@@H](C)[C@H](OC)c1ncc(C)cn1 [Example 52.0],650 nM
13,COc1cccc(OC)c1-n1c(CCN2CCN(C)CC2)nnc1NS(=O)(=O)[C@@H](C)[C@H](OC)c1ncc(C)cn1 [Example 53.0],54 nM
14,COc1cccc(OC)c1-n1c(Cc2ccccc2)nnc1NS(=O)(=O)[C@@H](C)[C@H](OC)c1ncc(C)cn1 [Example 54.0],300 nM
15,"CO[C@H](c1ncc(Cl)cn1)[C@H](C)S(=O)(=O)Nc1nnc(C)n1C1(C)CC1 [Example 55.0, (1R,2S)-1-(5-chloropyrimidin-2-yl)-1-methoxy-N-(5-methyl-4-(1-methylcyclopropyl)-4H-1,2,4-triazol-3-yl)propane-2-sulfonamide]",540 nM
16,"COCc1nnc(NS(=O)(=O)[C@@H](C)[C@H](OC)c2ncc(Cl)cn2)n1C1(C)CC1 [Example 59.0, (1R,2S)-1-(5-chloropyrimidin-2-yl)-1-methoxy-N-(5-(methoxymethyl)-4-(1-methylcyclopropyl)-4H-1,2,4-triazol-3-yl)propane-2-sulfonamide]",33 nM
17,"COCc1nnc(NS(=O)(=O)[C@@H](C)[C@H](OC)c2ncc(Cl)cn2)n1C1CCOCC1 [Example 63.0, (1R, 2S)-1-(5-chloropyrimidin-2-yl)-1-methoxy-N-(5-(methoxymethyl)-4-(tetrahydro-2H-pyran-4-yl)-4H-1,2,4-triazol-3-yl)propane-2-sulfonamide]",10 nM
18,"COc1ncnc(OC)c1-n1c(CC(F)(F)F)nnc1NS(=O)(=O)[C@@H](C)[C@H](OC)c1ncc(Cl)cn1 [Example 67.0, (1R,2S)-1-(5-chloropyrimidin-2-yl)-N-(4-(4,6-dimethoxypyrimidine-5-yl)-5-(2.2.2-trifluoroethyl)-4H-1.2.4-triazol-3-yl)-1-methoxypropane-2-sulfonamide]",230 nM

# Same assay, conditions: read-out: Activity hAPJ SPA EC50 IP
row,SMILES,EC50
1,"COCc1nnc(NS(=O)(=O)[C@@H](C)[C@H](OC)c2ncc(Cl)cn2)n1-c1c(OC)ncnc1OC [Example 58.0, (1R,2S)-1-(5-chloropyrimidin-2yl)-N-(4-(4.6-dimethoxypyrimidin-5-yl)-5-(methoxymethyl)-4H-l,2,4-triazol-3-yl)-1-methoxypropane-2-sulfonamide]",330 nM
2,"COCc1nnc(NS(=O)(=O)[C@@H](C)[C@H](OC)c2ncc(C)cn2)n1-c1c(OC)cccc1OC [Example 60.0, (1R,2S)-N-(4-(2.6-dimethoxyphenyl)-5-(methoxymethyl)-4H-1.2,4-triazol-3-yl)-1-methoxy-1-(5-methylpyrimidin-2-yl)propane-2-sulfonamide]",22 nM
3,"COCc1nnc(NS(=O)(=O)[C@@H](C)[C@H](C)c2ncc(C)cn2)n1-c1c(OC)cccc1OC [Example 61.0, (2S,3R)-N-(4-(2,6-dimethoxyphenyl)-5-(methoxymethyl)-4H-1.2.4-triazol-3-yl)-3-(5-methylpyrimidin-2-yl)butane-2-sulfonamide]",6.7 nM
4,"COCc1nnc(NS(=O)(=O)[C@@H](C)[C@@H](OC(C)C)c2ncc(C)cn2)n1-c1c(OC)cccc1OC [Example 62.0, (1S,2S)-N-(4-(2,6-dimethoxyphenyl)-5-(methoxymethyl)-4H-1,2,4-triazol-3-yl)-1-isopropoxy-1-(5-methylpyrimidin-2-yl)propane-2-sulfonamide]",1000 nM
5,"COc1cccc(OC)c1-n1c(CO)nnc1NS(=O)(=O)[C@@H](C)[C@H](OC)c1ncc(Cl)cn1 [Example 64.0, (1R,2S)-1-(5-chloropyrimidin-2-yl)-N-(4-(2,6-dimethoxyphenyl)-5-(hydroxymethyl)-4H-1.2.4-triazol-3-yl)-1-methoxypropane-2-sulfonamide]",20 nM

# Reference: US11191762B2, “Alkyl substituted triazole compounds as agonists of the APJ Receptor” (priority 2016, dated 2021)
